Patent US9340506B2, “Acetamide derivatives as glucokinase activators, their process and medicinal applications” (ADVINUS THERAPEUTICS LIMITED, priority 2007, dated 2016)

Target: purified human recombinant GK (Homo sapiens (Human), UniProt P35557)
Experiment: Glucokinase activity assay (coupled enzymatic, G6PD/NADH absorbance at 340 nm)
Type: biochemical
Conditions: for EC50: EC50 of % change in S0.5 of glucokinase for glucose, sigmoidal fit, read-out: EC50 (with respect to % ΔS0.5); for Emax / % Emax (with respect to % ΔS0.5): Emax of % change in S0.5 of glucokinase for glucose, vehicle S0.5 = 0%, 0 mM glucose = 100%; for Emax: read-out: % Emax (with respect to % ΔS0.5)
Excerpt: The glucokinase (GK) assay is a coupled enzymatic assay. GK catalyzes the first step of glycolysis, the conversion of glucose to glucose-6-phosphate (G6P) in the presence of ATP. G6P in turn is converted by glucose-6-phosphate dehydrogenase (G6PD) to 6-phosphogluconate, a process that requires NAD, resulting in NADH formation. Since the GK-catalyzed step is the rate-limiting step of this coupled enzymatic process, the rate of accumulation of 6-phosphogluconate and NADH is directly proportional to the rate of glucose phosphorylation by GK. The rate of the GK-catalyzed reaction can therefore be measured by monitoring the increase in NADH absorbance at 340 nm.
The assay is carried out according to the protocol outlined in Hariharan et al (1997), Diabetes 46: 11-16. Briefly, the test compounds are incubated in a reaction mix containing 25 mM HEPES (pH 7.2), 10 mM MgCl2, 100 mM KCl, 5 mM ATP, 2 mM DTT, 0.5 mM NAD, 1 U/mL Leuconostoc mesenteroides G6PD, 0.3 U/mL of purified human recombinant GK, and different concentrations of glucose. Enzymatic activity is calculated from the initial reaction velocity, measured from the change in NADH absorbance as a function of time.
Compounds described in formula (I), in concentration ranges from 1.0 nM to 500 μM, are tested in the purified human recombinant glucokinase assay described above.
A compound is considered to be a glucokinase activator if it, in its testable range of concentrations, yields a higher rate of glucose phosphorylation than in its absence at a particular glucose concentration, for example at 5 mM glucose.
Compounds of general formula (I) are tested in the in vitro GK enzymatic assay to monitor dose-dependent effect on glucokinase activation (in kinetic mode), as described above, at various glucose concentrations. The S0.5 of glucokinase for glucose at different concentration of each compound of interest is calculated from the following modified version of the Michaelis-Menten equation, V=Vmax [S]^n/(S0.5^n+[S]^n), where [S] is the glucose concentration and n is the Hill coefficient (taken as 1.7 to account for the sigoidal kinetics of glucokinase with respect to glucose). The S0.5 is plotted against the log of the compound concentration. The change in the S0.5 of glucokinase (ΔS0.5) for glucose is calculated by subtracting the S0.5 at each concentration of the compound from the S0.5 in the vehicle control. The ΔS0.5 is then normalized to a percent scale, where the S0.5 in the vehicle control is set to 0% and 0 mM glucose is set to 100%. The % ΔS0.5 is then plotted against the log of the compound concentration. The EC50 and Emax of % change in S0.5 is obtained from the sigoidal fit of the data. Detailed protocol has been described in our copending application no. 409/CHE/2007 which is incorporated herein by reference. Characterization data of some representative glucokinase activators of the present disclosure, which are illustrative but not limiting, are given in table I below.

Sequence of purified human recombinant GK (P35557 whole entry): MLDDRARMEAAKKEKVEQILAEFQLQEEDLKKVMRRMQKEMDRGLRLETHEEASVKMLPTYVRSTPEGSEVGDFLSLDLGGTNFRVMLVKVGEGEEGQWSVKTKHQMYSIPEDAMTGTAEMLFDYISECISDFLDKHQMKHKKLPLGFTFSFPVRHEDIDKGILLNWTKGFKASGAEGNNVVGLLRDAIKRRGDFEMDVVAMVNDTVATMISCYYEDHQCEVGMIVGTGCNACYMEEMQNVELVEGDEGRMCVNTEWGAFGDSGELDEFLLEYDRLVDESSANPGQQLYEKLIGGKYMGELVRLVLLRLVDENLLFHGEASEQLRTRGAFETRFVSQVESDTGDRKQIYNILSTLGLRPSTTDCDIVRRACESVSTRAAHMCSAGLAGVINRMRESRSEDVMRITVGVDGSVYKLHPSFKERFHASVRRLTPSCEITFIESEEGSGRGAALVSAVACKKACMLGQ

Question: With `O=C(Nc1ncc(-n2cccn2)s1)C(Oc1ccc(F)cc1F)c1ccc(S(=O)(=O)C2CC2)cc1` (single isomer, unassigned; (+)) [Example G4A, (+)2-(4-cyclopropylsulfonylphenyl)-2-(2,4-difluorophenoxy)-N-(5-pyrazol-1-ylthiazol-2-yl)acetamide] as the compound, how does the EC50 read?
Answer: Its EC50 is 260 nM.

Question: And the Emax?
Answer: Its Emax is 91%.

Question: How did the EC50 turn out when `CC(C)(C(=O)O)c1ccc(Oc2cnc(NC(=O)C(OC3CCOCC3)c3ccc(S(=O)(=O)C4CC4)cc3)s2)cc1` (single isomer, unassigned; (+)) [Example G5A, (+)2-[4-[2-[[2-(4-cyclopropylsulfonylphenyl)-2-tetrahydropyran-4-yloxy-acetyl]amino]thiazol-5-yl]oxyphenyl]-2-methyl-propanoic acid] was run?
Answer: Its EC50 is 94 nM.

Question: What about the Emax of the same compound?
Answer: Its Emax is 91%.

Question: With `Cc1ccc(Oc2cnc(NC(=O)C(O[C@@H]3CCOC3)c3ccc(S(=O)(=O)C4CC4)cc3)s2)cc1C(=O)O` (single isomer, unassigned; (+)) [Example G11A] as the compound, how does the EC50 read?
Answer: Its EC50 is 570 nM.

Question: And the Emax?
Answer: Its Emax is 92%.

Question: How did the EC50 turn out when `O=C(O)c1cnn(-c2cnc(NC(=O)C(OC3CCOCC3)c3ccc(S(=O)(=O)C4CC4)cc3)s2)c1` (single isomer, unassigned; (+)) [Example G12A, (+)1-[2-[[2-(4-cyclopropylsulfonylphenyl)-2-tetrahydropyran-4-yloxy-acetyl]amino]thiazol-5-yl]pyrazole-4-carboxylic acid] was run?
Answer: The EC50 was 300 nM.

Question: And the Emax?
Answer: Its Emax is 90%.

Question: `Cc1cc(Oc2cnc(NC(=O)C(O[C@@H]3CCOC3)c3ccc(S(=O)(=O)C4CC4)cc3)s2)ccc1C(=O)O` (single isomer, unassigned; (+)) [Example G14A] was tested. Which EC50 did it give?
Answer: The EC50 was 380 nM.

Question: And the Emax?
Answer: The Emax was 99%.

Question: Which EC50 does the source give for `CCOC(=O)c1cccc(Oc2cnc(NC(=O)C(OC3CCOCC3)c3ccc(S(=O)(=O)C4CC4)cc3)s2)c1` (single isomer, unassigned; (+)) [Example G19A, (+)ethyl 3-[2-[[2-(4-cyclopropylsulfonylphenyl)-2-tetrahydropyran-4-yloxy-acetyl]amino]thiazol-5-yl]oxybenzoate] here?
Answer: Its EC50 is 100 nM.

Question: And the Emax?
Answer: Its Emax is 95%.

Question: How did the EC50 turn out when `O=C(O)c1cncc(Oc2cnc(NC(=O)C(OC3CCOCC3)c3ccc(S(=O)(=O)C4CC4)cc3)s2)c1` (single isomer, unassigned; (+)) [Example G22A, (+)5-[2-[[2-(4-cyclopropylsulfonylphenyl)-2-tetrahydropyran-4-yloxy-acetyl]amino]thiazol-5-yl]oxypyridine-3-carboxylic acid] was run?
Answer: Its EC50 is 290 nM.

Question: What about the Emax of the same compound?
Answer: The Emax was 95%.

Question: For `Cc1cc(Oc2cnc(NC(=O)C(OC3CCOCC3)c3ccc(S(=O)(=O)C4CC4)cc3)s2)ccc1C(=O)O` (single isomer, unassigned; (-)) [Example G1B, (−)4-[2-[[2-(4-cyclopropylsulfonylphenyl)-2-tetrahydropyran-4-yloxy-acetyl]amino]thiazol-5-yl]oxy-2-methyl-benzoic acid], which EC50 is on record?
Answer: The EC50 was 330 nM.

Question: What about the “% Emax (with respect to % ΔS0.5)” value of the same compound?
Answer: Its value is 92%.

Question: How did the EC50 turn out when `O=C(O)Cc1nc(NC(=O)C(OC2CCOCC2)c2ccc(S(=O)(=O)N3CCCCC3)cc2)sc1Cl` (single isomer, unassigned; (-)) [Example G3B, (−)2-[5-chloro-2-[[2-[4-(1-piperidylsulfonyl)phenyl]-2-tetrahydropyran-4-yloxy-acetyl]amino]thiazol-4-yl]acetic acid] was run?
Answer: Its EC50 is 420 nM.

Question: What about the Emax of the same compound?
Answer: Its Emax is 94%.

Question: What does the source list for `O=C(Nc1ncc(-n2cccn2)s1)C(Oc1ccc(F)cc1F)c1ccc(S(=O)(=O)C2CC2)cc1` (single isomer, unassigned; (-)) [Example G4B, (−)2-(4-cyclopropylsulfonylphenyl)-2-(2,4-difluorophenoxy)-N-(5-pyrazol-1-ylthiazol-2-yl)acetamide]?
Answer: EC50: 640 nM; % Emax (with respect to % ΔS0.5): 79%

Question: How did the EC50 turn out when `O=C(Nc1nccs1)C(OC1CCOCC1)c1ccc(S(=O)(=O)C2CC2)cc1` (stereo not shown) [Example A-1, 2-(4-Cyclopropylsulfonylphenyl)-2-tetrahydropyran-4-yloxy-N-thiazol-2-yl-acetamide] was run?
Answer: Its EC50 is 1400 nM.

Question: What about the Emax of the same compound?
Answer: The Emax was 89%.

Question: What does the source list for `O=C(Nc1ncc(F)s1)C(OC1CCOCC1)c1ccc(S(=O)(=O)N2CCOCC2)cc1` (stereo not shown) [Example A-11, N-(5-fluorothiazol-2-yl)-2-(4-morpholinosulfonylphenyl)-2-tetrahydropyran-4-yloxy-acetamide]?
Answer: EC50: 950 nM; Emax: 85%

Question: With `COc1ccc2nc(NC(=O)C(OC3CCOCC3)c3ccc(S(=O)(=O)N4CCOCC4)cc3)sc2n1` (stereo not shown) [Example A-12, N-(5-methoxythiazolo[5,4-b]pyridin-2-yl)-2-(4-morpholinosulfonylphenyl)-2-tetrahydropyran-4-yloxy-acetamide] as the compound, how does the EC50 read?
Answer: Its EC50 is 660 nM.

Question: What about the Emax of the same compound?
Answer: Its Emax is 88%.

Question: `CN1CCC(OC(C(=O)Nc2ncc(F)s2)c2ccc(S(=O)(=O)C3CC3)cc2)CC1` (stereo not shown) [Example A-32, 2-(4-Cyclopropylsulfonylphenyl)-N-(5-fluorothiazol-2-yl)-2-[(1-methyl-4-piperidyl)oxy]acetamide] was tested. Which EC50 did it give?
Answer: The EC50 was over 10000 nM.

Question: `CC(C)(C)OC(=O)c1ccc(NC(=O)C(Oc2ccc(F)cc2F)c2ccc(S(=O)(=O)N3CCOCC3)cc2)nc1` (stereo not shown) [Example A-58, tert-Butyl 6-[[2-(2,4-difluorophenoxy)-2-(4-morpholinosulfonylphenyl)acetyl]amino]pyridine-3-carboxylate] was tested. Which EC50 did it give?
Answer: Its EC50 is over 10000 nM.

Question: How did the EC50 turn out when `O=C(O)C1CCc2nc(NC(=O)C(OC3CCOCC3)c3ccc(S(=O)(=O)C4CC4)cc3)sc2C1` (stereo not shown) [Example B-4, 2-[[2-(4-cyclopropylsulfonylphenyl)-2-tetrahydropyran-4-yloxy-acetyl]amino]-4,5,6,7-tetrahydro-1,3-benzothiazole-6-carboxylic acid] was run?
Answer: The EC50 was 3700 nM.

Question: What about the Emax of the same compound?
Answer: The Emax was 83%.

Question: `Cc1cc(Oc2cnc(NC(=O)C(Oc3ccc(F)cc3F)c3ccc(S(=O)(=O)C4CC4)cc3)s2)ccc1C(=O)O` (stereo not shown) [Example B-9, 4-[2-[[2-(4-cyclopropylsulfonylphenyl)-2-(2,4-difluorophenoxy)acetyl]amino]thiazol-5-yl]oxy-2-methyl-benzoic acid] was tested. Which EC50 did it give?
Answer: The EC50 was 93 nM.

Question: And the Emax?
Answer: The Emax was 89%.

Question: Which results are given for `O=C(O)Cc1nc(NC(=O)C(OC2CCOCC2)c2ccc(S(=O)(=O)N3CCCCC3)cc2)sc1Cl` (stereo not shown) [Example B-12, 2-[5-chloro-2-[[2-[4-(1-piperidylsulfonyl)phenyl]-2-tetrahydropyran-4-yloxy-acetyl]amino]thiazol-4-yl]acetic acid]?
Answer: EC50: 1120 nM; Emax: 90%

Question: `O=C(O)c1ccc(Oc2cnc(NC(=O)C(OC3CCOCC3)c3ccc(S(=O)(=O)C4CC4)cc3)s2)cc1Cl` (stereo not shown) [Example B-20, 2-chloro-4-[2-[[2-(4-cyclopropylsulfonylphenyl)-2-tetrahydropyran-4-yloxy-acetyl]amino]thiazol-5-yl]oxy-benzoic acid] was tested. Which EC50 did it give?
Answer: The EC50 was 590 nM.

Question: And the Emax?
Answer: The Emax was 94%.

Question: What does the source list for `O=C(O)c1cc(Oc2cnc(NC(=O)C(OC3CCOCC3)c3ccc(S(=O)(=O)C4CC4)cc3)s2)ccc1Cl` (stereo not shown) [Example B-23, 2-chloro-5-[2-[[2-(4-cyclopropylsulfonylphenyl)-2-tetrahydropyran-4-yloxy-acetyl]amino]thiazol-5-yl]oxy-benzoic acid]?
Answer: EC50: 480 nM; Emax: 94%

Question: Which EC50 does the source give for `O=C(O)c1cc(-c2ccc(Oc3cnc(NC(=O)C(OC4CCOCC4)c4ccc(S(=O)(=O)C5CC5)cc4)s3)cc2)no1` (stereo not shown) [Example B-26, 3-[4-[2-[[2-(4-cyclopropylsulfonylphenyl)-2-tetrahydropyran-4-yloxy-acetyl]amino]thiazol-5-yl]oxyphenyl]isoxazole-5-carboxylic acid] here?
Answer: The EC50 was 220 nM.

Question: And the Emax?
Answer: The Emax was 92%.
